According to the CheMixHub ionic liquid set:
“And” between values parts separate entries of the source, which are not always exact repeats. Identical values can stand only once.

Assay: xn = mol fraction of the nth substance listed
Details: for electrical conductivity: x2 = 0

CC[n+]1ccn(C)c1.CS(=O)(=O)[O-] + CS(C)=O
101 kPa, x1 = 0.3333
Details | viscosity [mPa·s]
283.15 K | 5.66
288.15 K | 5.04
293.15 K | 4.47
298.15 K | 3.94
303.15 K | 3.47
308.15 K | 3.04
313.15 K | 2.66
318.15 K | 2.33
323.15 K | 2.05
328.15 K | 1.81
333.15 K | 1.63
338.15 K | 1.49
343.15 K | 1.4
348.15 K | 1.36
353.15 K | 1.33

OCC(F)(F)F + COP(=O)([O-])OC.Cn1cc[n+](C)c1
viscosity [mPa·s], 101 kPa
Details | 298.15 K | 333.15 K
x2 = 0.4904 | 42.9 | –
x2 = 0.803 | 158.2 | 31.5

C[n+]1ccn(CCCCCn2cc[n+](C)c2)c1.O=S(=O)([N-]S(=O)(=O)C(F)(F)F)C(F)(F)F.O=S(=O)([N-]S(=O)(=O)C(F)(F)F)C(F)(F)F + OCCOCCOCCOCCO
viscosity, 101 kPa
Details | 293.15 K | 303.15 K | 313.15 K | 323.15 K | 333.15 K
x1 = 0.3283 | 178.4 mPa·s | 93.1 mPa·s | 56.5 mPa·s | 36.2 mPa·s | 22.4 mPa·s
x1 = 0.55 | 448 mPa·s | 233 mPa·s | 128 mPa·s | 81.7 mPa·s | 54.9 mPa·s
x1 = 0.7097 | 627 mPa·s | 316 mPa·s and 318 mPa·s | 177.9 mPa·s and 180.1 mPa·s | 107.7 mPa·s | 67.9 mPa·s
x1 = 1 | 1125 mPa·s | 555 mPa·s | 313 mPa·s | 192.3 mPa·s | 123.2 mPa·s

OCC(F)(F)F + CCCC[n+]1ccn(C)c1.O=S(=O)([N-]S(=O)(=O)C(F)(F)F)C(F)(F)F
101 kPa
Details | viscosity [mPa·s]
278.15 K, x1 = 0.2626 | 65.4
278.15 K, x1 = 0.4753 | 30.28
278.15 K, x1 = 0.6153 | 16.99
278.15 K, x1 = 0.7568 | 9.09
293.15 K, x1 = 0.6153 | 10.18
298.15 K, x1 = 0.2626 | 27.45
298.15 K, x1 = 0.7568 | 5.03
313.15 K, x1 = 0.4753 | 9.42
318.15 K, x1 = 0.4753 | 8.31
323.15 K, x1 = 1 | 1.02
333.15 K, x1 = 0.2626 | 9.76

NCC(=O)O + CCCCCCCCCCCC[N+](C)(C)Cc1ccccc1.[Cl-] + O
electrical conductivity [S/m], 101 kPa
Details | 293.15 K | 298.15 K | 303.15 K | 308.15 K | 313.15 K
x1 = 0.0008876 | 0.000384 | 0.000431 | 0.000492 | 0.000549 | 0.000613
x1 = 0.001759 | 0.00074 | 0.000839 | 0.000945 | 0.00106 | 0.00118

CC(=O)[O-].CC[n+]1ccn(C)c1 + O=C[C@H](O)[C@@H](O)[C@H](O)[C@H](O)CO
100 kPa
Details | viscosity [mPa·s]
282.5 K, x2 = 0.009453 | 407
282.5 K, x2 = 0.02839 | 517
312.5 K, x2 = 0.1429 | 419
332.2 K, x2 = 0.1429 | 123
373.1 K, x2 = 0.095 | 19

C[N+](C)(CCO)Cc1ccccc1.[Cl-] + CC(=O)CCC(=O)O
101.33 kPa, x1 = 0.3333
Details | viscosity [mPa·s]
293.15 K | 2026
298.15 K | 1235
303.15 K | 785
308.15 K | 518
313.15 K | 353
318.15 K | 248
323.15 K | 179
328.15 K | 133
333.15 K | 101
338.15 K | 78
343.15 K | 61
348.15 K | 49
353.15 K | 40
